Experimental data as given in patent US20260077055A1, “COMPOSITIONS OF POLYPLEXES AND SAPONINS” (SAPREME TECHNOLOGIES B.V., priority 2022, published 2026).
Where a SMILES comes first, the peptide text is derived from it. [ ]: non-standard residue; d: D form. Lys(N3) = [N-]=[N+]=NCCCC[C@H](N)C(=O)O

What was measured:
EGFR+ A431 cells = test: Cell viability (MTS) after polyplex transfection of A431 cells; assay type: cell-based; settings: for cell killing activity / saporin gene delivery, K16C npSaporin polyplexes: K16C alone up to about 5000 μM of plasmids (printed), SO1861-EMCH = free, co-administered with K16C-polyplexes
Method: Spectrophotometry: Concentrations were determined using either a Thermo Nanodrop 2000 spectrometer or Perkin Elmer Lambda 365 Spectrophotometer. DLS measurements: DLS measurements were performed on a Malvern Nano ZS (Malvern Instruments, U.K.), operating at 633 nm with a 173° scattering angle, at 25 or 37° C. DLS mean diameters were obtained from the intensity particle size distribution provided by Malvern Zetasizer Software. DLS histograms were obtained from the intensity particle size distributions. Zeta-potential: The zeta-potential values of the polyplexes were obtained by laser doppler anemometry (LDA), measuring the mean electrophoretic mobility (Malvern Zetasizer Nano ZS, Malvern Instruments, U.K.). Measurements were performed in 10 mM HEPES pH 7.1, 150 mM NaCl. TEM measurements: TEM measurements were performed on a JEOL JEM-1011 operated at 100 kV electron microscope, equipped with a camera S5 MegaView G2. A drop of a solution of polyplexes (0.1 mg/mL) was settled on a PELCO® TEM carbon type-B film copper grid and allowed to dry at room temperature for 1 h. Infrared Spectroscopy: FT-IR spectra were recorded on a Bruker Vertex 70v, equipped with a RockSolid interferometer, after preparing the samples (1-2 mg) as KBr pellets. Spectra were processed using OPUS 7.8 software (Bruker). NMR Spectroscopy: 1H NMR spectra were recorded on a 11.7 T Bruker DRX-500 spectrometer. Chemical shifts are reported in ppm (o units) downfield from the HOD residual solvent peak (CD3OD). Experiments were recorded acquiring 64-512 scans, with a pre-scan delay (d1) of 12 s, and an acquisition time (aq) of 4 s at 300 K. 13C NMR spectrum was recorder on a 9.39 T Varian Innova 400 spectrometer. MestReNova 14.2 software (Mestrelab Research) was used for spectra processing. Cell culture conditions and treatments: HEK293FT, A431, A2058, Neuro2A, Hepa1-6 and MDA-MB 468 were maintained in 10% FBS-supplemented DMEM medium (PAN-Biotech GmbH, or Lonza Group, Basel, Switzerland)+Pen/Strep at 37° C. with 5% CO2. […] SO1861-EMCH was conjugated into/onto these polyplexes or co-administrated at 966 or 4000 nM to the different cell lines in vitro (as indicated). For this, cells were seeded in a 96 well plate at 5.000-10.000 c/w in 100 μL/well and incubated overnight at 37° C. Before treatment, the mAb-SO1861 and polyplexes were diluted separately in DPBS (PAN-Biotech GmbH) to 10× the required final concentration. The cells received 80 μL/well fresh media, followed by 20 μL/well polyplex solution and 20 μL/well saponin solution. In particular, before K16-polyplex treatments, K16-polyplexes were formulated in 10 mM HEPES, incubated for 30 min at room temperature and then diluted with complete cell culture medium. The complete cell culture medium was exchanged against 100 μL transfection medium. For co-administration of SO1861-EMCH, the transfection medium was supplemented with 2 μg/mL (=966 nM) SO1861-EMCH. Control transfections were performed with Lipofectamine™ 3000 Transfection Reagent (Thermo Fisher Scientific) according to the manufacturer's instruction, using either […] or 100 ng plasmid and with a media change 4-5 hrs after transfection. […] After treatment, the cells were incubated for 72 hr at 37° C. before the cell viability was determined by a MTS-assay performed according to the manufacturer's instruction (CellTiter 96® AQueous One Solution Cell Proliferation Assay, Promega). […]

red blood cells (RBCs) = test: Haemolysis assay; assay type: cell-based, human; settings: 2.5-80 μg/mL, 3 h at 37° C.
Method: To get a first estimation of the haemolytic activity of the scaffolds and its potential to induce aggregation of red blood cells, possible disruption of red blood cells was investigated by measuring the release of haemoglobin into the supernatant according to the scheme shown in FIG. 24A. First, the red blood cells (RBCs) were treated with solutions containing PAMAM- or peptide-based scaffolds or polyplexes obtained therewith at different concentrations (2.5-80 μg/mL). The incubation was performed for 3 h at 37° C. RBCs treated with PBS under same conditions were used as a negative control while samples treated with Triton X-100 (10%) were used as a positive control corresponding to conditions of full haemolysis. After centrifugation, the absorbance at 540 nm (OD540) of the supernatants was recorded with a spectrometer. The following equation was used for the calculation of the percentages of haemolysis: […]

[1] = test system: extrinsic part of the coagulation cascade; test: Prothrombin time in fresh whole blood; settings: reference 70-130%
Method: (§1) As a next step, the erythrocyte aggregation propensity of the scaffolds was examined under an optical microscope to visualize possible interactions of the scaffolds and polyplexes with RBCs and their surface (FIG. 24C). […] Next, the impact on haemostasis was investigated. […] Consequently, to investigate the impact of the PAMAM- and peptide-based scaffolds on the patient's blood coagulation, these two parameters were measured in fresh whole blood after incubation of nanoparticles at different concentrations (0 nM-5 μM).

RBCs = test: Erythrocyte aggregation under optical microscope; settings: up to 80 μg/mL
Method: as §1

intrinsic pathway = test: Activated partial thromboplastin time in fresh whole blood; settings: 0.1 μM; reference 26-40 s
Method: as §1

| Compound | cell killing activity / saporin gene delivery, K16C npSaporin polyplexes (EGFR+ A431 cells) | cell killing activity of K16C npSaporin polyplex (EGFR+ A431 cells; up to about 1000 pM of plasmid, absence of free saponin or targeted saponin, N/P ratio 10) | haemolytic activity (red blood cells (RBCs)) | prothrombin time (PT) ([1]; 0.1 μM) | prothrombin time (PT) ([1]; 0.5 μM) | prothrombin time (PT) ([1]; 1 μM) | prothrombin time (PT) ([1]; 5 μM) | erythrocyte aggregation (RBCs) | partial thromboplastin time (PTT) (intrinsic pathway) |
| --- | --- | --- | --- | --- | --- | --- | --- | --- | --- |
| [N-]=[N+]=NCCCC[C@H](NC(=O)[C@H](Cc1ccc(O)cc1)NC(=O)CNC(=O)CNC(=O)[C@H](CS)NC(=O)CNC(=O)CNC(=O)CNC(=O)CNC(=O)[C@H](CCCCN)NC(=O)[C@H](CCCCN)NC(=O)[C@H](CCCCN)NC(=O)[C@H](CCCCN)NC(=O)[C@H](CCCCN)NC(=O)[C@H](CCCCN)NC(=O)[C@H](CCCCN)NC(=O)[C@H](CCCCN)NC(=O)[C@H](CCCCN)NC(=O)[C@H](CCCCN)NC(=O)[C@H](CCCCN)NC(=O)[C@H](CCCCN)NC(=O)[C@H](CCCCN)NC(=O)[C@H](CCCCN)NC(=O)[C@H](CCCCN)NC(=O)[C@@H](N)CCCCN)C(N)=O [K16C, K16G4CGGYK (N3)] (H-KKKKKKKKKKKKKKKKGGGGCGGY[Lys(N3)]-NH2) | practically no cell killing activity | practically no enhanced cell killing activity | surprisingly low haemolysis degree | 100% | 82% | 61% | 33.5% | did not cause any RBC aggregation | 38.5 s |
| K16G4CGGYK (N3)-SO18610.25 [K16C-(SO1861)0.25 eq] | the most efficient in saporin gene delivery into the cytoplasm |  |  |  |  |  |  |  |  |
